From US20170368089A1, “COMPOSITION FOR PREVENTING OR TREATING COLITIS” (UNIVERSITY-INDUSTRY COOPERATION GROUP OF KYUNG HEE …, priority 2012, published 2017)

Assays:
[1] = system: model animal with acute colitis induced by TNBS; assay: Acute colitis induced by TNBS in mice, weight change and colon appearance (macroscopic score, colon length), third experiment; assay type: in vivo, male mice (C57BL/6); conditions: Table 12, TNBS-treated mice, 3 days
Procedure: All the mice were bred under the controlled environmental conditions of 50 ±10% of humidity and 20 to 22° C. of temperature, and the lighting was repeatedly on for 12 hours and off for 12 hours. A feed for a standard experiment (Samyang, Korea) was used as a feed, and water was freely taken. For all the experiments, one group was 6 mice. […] Meanwhile, 0.1 ml of normal saline solution was orally administered to the normal group. Since then, from the next day, the sample dissolved in normal saline solution was orally administered in the volume that was decided in advance one time a day for 3 days. At the next day after completing the sample administration, the experimental animals were suffocated to death with carbon dioxide, and the colon from appendix to the region just before the anus was removed from the colon region. At this time, as a medicine sample, the experiments using the butanol-soluble fraction of the Anemarrhena asphodeloides Bunge extract, Mangiferin, and a combined extract were separately performed at a distance of time, respectively, and the effects of the medicine samples on preventing or treating colitis were reasonably analyzed based on the group supplied with normal saline solution instead of a specific medicine in the model animals with acute colitis induced by TNBS for each of the experiments. The sample administration to the model animals with colitis induced by TNBS was stopped, and at the next day, the weights of the experimental animals were measured, and then, the measured weights were compared with the initial weights to calculate the change amounts of weights. The scores about the removed colons were estimated by observing the appearances and the lengths of the colons according to the following criteria (Hollenbach, and the like, the criteria about the level of colon in 2005) as listed in Table 11. At this time, as a positive control group, the group administered with Mesalazine (Sigma) was used. In addition, some of the content in the colon was collected in order to analyze the rumen microorganisms, and then, was stored in a freezer of −80° C. […]

TNF-alpha = TNF-alpha expression in colon tissue (ELISA), TNBS acute colitis, third experiment; assay type: in vivo, male mice (C57BL/6); conditions: Table 12; TNBS-treated mice, 10 mg/kg orally, 3 days
Procedure: Meanwhile, 0.1 ml of normal saline solution was orally administered to the normal group. Since then, from the next day, the sample dissolved in normal saline solution was orally administered in the volume that was decided in advance one time a day for 3 days. At the next day after completing the sample administration, the experimental animals were suffocated to death with carbon dioxide, and the colon from appendix to the region just before the anus was removed from the colon region. At this time, as a medicine sample, the experiments using the butanol-soluble fraction of the Anemarrhena asphodeloides Bunge extract, Mangiferin, and a combined extract were separately performed at a distance of time, respectively, and the effects of the medicine samples on preventing or treating colitis were reasonably analyzed based on the group supplied with normal saline solution instead of a specific medicine in the model animals with acute colitis induced by TNBS for each of the experiments. […] While the supernatant was stored at −80° C., the expression amounts of IL-1 beta, IL-6, and TNF-alpha, which were proinflammatory cytokines, and the expression amount of IL-10, which was anti-inflammatory cytokine, were measured using a 96-well ELISA plate kits (Pierce Biotechology, Inc., Rockford, Ill., USA).

## Nc1ccc(O)c(C(=O)O)c1 [mesalazine, Mesalazine]
[1]; 10 mg/kg orally
  Colon length (Percentage to group supplied with normal saline solution after treating TNBS): 155%
  Macroscopic score (Percentage to group supplied with normal saline solution after treating TNBS): 61.1%
[1]; one time dosage amount 10 mg/kg orally
  Body weight (Percentage to group supplied with normal saline solution after treating TNBS): 113.5%
TNF-alpha
  TNF-α (Percentage to group supplied with normal saline solution after treating TNBS): 36.8%
